What was measured:
[1] = system: myocardial contractile force; assay: Acute In Vivo Cardiotonic Evaluation (myocardial contractile force); set-up: species or system adult mongrel dogs; conditions: Canis lupus familiaris, iv, i.v. infusion, anesthetized dogs, vs pretreatment control values, read-out: % Increase In Myocardial Contractile force; for change in vivo at 8.75 mg/kg: 8.75 mpk; for change in vivo at 1.87 mg/kg: 1.87 mpk
Protocol: Pharmacological Activity--Acute In Vivo Cardiotonic Evaluation
Using the procedures described by Alousi, A. A. et al., Circ. Res. 45, 666 (1979), adult mongrel dogs were anesthetized with sodium pentobarbital, and artificially respirated. Arterial pressure was recorded via a femoral artery and the pressure pulse was used to trigger a cardiotachometer for heart rate. Left ventricular pressure was measured with a Millar catheter, and dP/dt was derived. Cardiac output was determined by measuring ascending aortic blood flow with an electromagnetic flow probe, and the myocardial contractile force (CF) was measured with a Walton Brodie strain gauge sutured to the right ventricle. Lead II EKG was also recorded.
A standard dose of dopamine or dobutamine was administered in order to assess myocardial responsiveness. The test compounds were then administered by i.v. infusion and the effects on cardiovascular parameters were determined. The dose of each example compound was either 1.87 mg/kg or 8.75 mg/kg as set forth below in Table 1.
The dose related effects of the compound on myocardial contractile force was compared to pretreatment control values, expressed as a % change and rated for activity. Statistical evaluations were made using the appropriate parametric test against a vehicle control.

[2] = system: ovalbumin-induced bronchoconstriction; assay: Active Lung Anaphylaxis (inhibition of ovalbumin-induced bronchoconstriction); type: in vivo, male Harley guinea pigs; conditions: prior to ovalbumin provocation, actively sensitized guinea pigs, percent inhibition of control
Protocol: Pharmacological Activity--Active Lung Anaphylaxis
Using the procedures described by Ritchie, D. M. et al., Agents and Actions 11, 4 (1981), male Harley guinea pigs were actively sensitized, intraperitoneally, with 16 mg alum and 1 mg ovalbumin. Fourteen days later, these animals were anesthetized and their respiration arrested by the administration of succinylcholine. Respiration was maintained at a constant pressure by a miniature Starling pump. Lung overflow changes in pressure were recorded.
Animals were pretreated with indomethacin (10 mg/kg, i.v.), atropine (0.5 mg/kg, i.v.), methysergide (0.1 mg/kg, i.v.), methapyrilene (2.0 mg/kg, i.v.) and arachidonic acid (5.0 mg/kg, i.v.) prior to ovalbumin challenge. […] Indications of drug efficacy were manifested as a substantial reduction in the degree of bronchoconstriction evidenced by control animals.
Bronchoconstriction induced by ovalbumin was measured as a percent of maximum bronchoconstriction (BC) obtained by clamping off the trachea. Percent inhibition of control was determined as follows: [formula]

Structure (SMILES)	change in vivo at 8.75 mg/kg [1] [%]	% Inhibition of Bronchoconstriction at 50 mpk [2] [%]	change in vivo at 1.87 mg/kg [1] [%]
COc1cc2c(cc1OC)C(C)=[N+]([O-])C(c1ccncc1)N2 (stereo not drawn) [Example 13, 1,2-Dihydro-2-(4-pyridyl)-4-methyl-6,7-dimethoxyquinazoline-3-oxide]	29	–	–
COc1cc2c(cc1OC)C(C)=[N+]([O-])C(c1ccc3c(c1)OCO3)N2 (stereo not drawn) [Example 5, 1,2-Dihydro-2-(3,4-methylenedioxyphenyl)-4-methyl-6,7-dimethoxyquinazoline-3-oxide]	124	–	–
COc1cc2c(cc1OC)C(C)=[N+]([O-])C(c1c(F)c(F)c(F)c(F)c1F)N2 (stereo not drawn) [Example 8, 1,2-Dihydro-2-pentafluorophenyl-4-methyl-6,7-dimethoxyquinazoline-3-oxide]	–	27.3	33
COc1cc2c(cc1OC)C(C)=[N+]([O-])C(c1ccccn1)N2 (stereo not drawn) [Example 12, 1,2-Dihydro-2-(2-pyridyl)-4-methyl-6,7-dimethoxyquinazoline-3-oxide]	45	37.9	–
COc1cc2c(cc1OC)C(C)=[N+]([O-])C(c1ccco1)N2 (stereo not drawn) [Example 9, 1,2-Dihydro-2-(2-furyl)-4-methyl-6,7-dimethoxyquinazoline-3-oxide]	123	–	–
COc1cc2c(cc1OC)C(C)=[N+]([O-])C(c1ccc(C)cc1)N2 (stereo not drawn) [Example 4, 1,2-Dihydro-2-(4-tolyl)-4-methyl-6,7-dimethoxy-quinazoline-3-oxide]	–	71.9	42
COc1cc2c(cc1OC)C(C)=[N+]([O-])C(c1ccccc1)N2 (stereo not drawn) [Example 1, 1,2-Dihydro-2-phenyl-4-methyl-6,7-dimethoxy-quinazoline-3-oxide]	157	60.9	–
COc1cc2c(cc1OC)C(C)=[N+]([O-])C(c1ccc(Cl)cc1)N2 (stereo not drawn) [Example 2, 1,2-Dihydro-2-(4-chlorophenyl)-4-methyl-6,7-dimethoxyquinazoline-3-oxide]	50	–	–
COc1cc2c(cc1OC)C(C)=[N+]([O-])C(c1cccc3c1OCO3)N2 (stereo not drawn) [Example 6, 1,2-Dihydro-2-(2,3-methylenedioxyphenyl)-4-methyl-6,7-dimethoxyquinazoline-3-oxide]	45	–	–
COc1cc2c(cc1OC)C(C)=[N+]([O-])C(c1cccs1)N2 (stereo not drawn) [Example 10, 1,2-Dihydro-2-(2-thienyl)-4-methyl-6,7-dimethoxyquinazoline-3-oxide]	75	–	–
COc1ccc(C2Nc3cc(OC)c(OC)cc3C(C)=[N+]2[O-])cc1 (stereo not drawn) [Example 3, 1,2-Dyhydro-2-(4-methoxyphenyl)-4-methyl-6,7-dimethoxyquinazoline-3-oxide]	–	–	29
COc1cc2c(cc1OC)C(C)=[N+]([O-])C(c1cccc(OCc3ccccc3)c1)N2 (stereo not drawn) [Example 7, 1,2-Dihydro-2-(3-benzyloxyphenyl)-4-methyl-6,7-dimethoxyquinazoline-3-oxide]	20	49.5	–
COc1cc2c(cc1OC)C(C)=[N+]([O-])C(c1cccn1C)N2 (stereo not drawn) [Example 11, 1,2-Dihydro-2-(2-(N-methyl)pyrrolo)-4-methyl-6,7-dimethoxyquinazoline-3-oxide]	–	–	29
